The results in this text go back to BindingDB's records for doi:10.1016/j.bmc.2010.11.049 (Bryn Mawr College, 2011).

A value given as a limit tells only on which side of the number the result lay.

This test in a line: Inhibition of HIV1 YU2 gp120 binding to CD4 expressing Cf2Th-CD4/CCR5 cells assessed as inhibition of viral infection after 48 hrs.
For the compound `CC1(C)CC(NC(=O)C(=O)Nc2c[nH]c3ncccc23)CC(C)(C)N1` [N1-(1H-pyrrolo[2,3-b]pyridin-3-yl)-N2-(2,2,6,6-tetramethylpiperidin-4-yl)oxalamide], the half-inhibitory concentration (IC50) was above 100 µM.
For `CCOC(=O)[C@H]1CCCN(CCC(=O)Nc2ccc(Br)cc2)C1` [(3S)-1-(3-(4-bromophenylamino)-3-oxopropyl)-3-(ethoxycarbonyl)piperidinium], the IC50 was above 100 µM.
For the compound `CCCN1CCC(NC(=O)C(=O)Nc2ccc(Cl)c(F)c2)CC1` [N1-(4-chloro-3-fluorophenyl)-N2-(1-propylpiperidin-4-yl)oxalamide], the IC50 was above 100 µM.
As for `CC1(C)CC(NC(=O)C(=O)Nc2ccc(N=[N+]=[N-])cc2)CC(C)(C)N1` [N1-(4-azidophenyl)-N2-(2,2,6,6-tetramethylpiperidin-4-yl)oxalamide], the figure is above 100 µM; as for `CC1(C)CC(NC(=O)C(=O)Nc2ccc(Cl)cc2OCc2ccccc2)CC(C)(C)N1` [N1-(2-(benzyloxy)-4-chlorophenyl)-N2-(2,2,6,6-tetramethylpiperidin-4-yl)oxalamide], above 100 µM.
The same measure for `O=C(Nc1ccc(Cl)c(F)c1)C(=O)Nc1cnn2c1NCCC2` [N1-(4-chloro-3-fluorophenyl)-N2-(4,5,6,7-tetrahydropyrazolo[1,5-a]pyrimidin-3-yl)oxalamide]: above 100 µM.
Turning to `CC(NC(=O)C(=O)Nc1ccc(Cl)c(F)c1)c1ccc(S(N)(=O)=O)cc1` (stereo unspecified) [N1-(4-chloro-3-fluorophenyl)-N2-(1-(4-sulfamoylphenyl)ethyl)oxalamide], the concentration for half-maximal inhibition (IC50) was above 100 µM.
The same measure for `Cc1cc(SCC(=O)Nc2ccc(Cl)cc2)[nH]c(=O)n1` [N-(4-chlorophenyl)-2-(6-methyl-2-oxo-1,2-dihydropyrimidin-4-ylthio)acetamide]: above 100 µM.
`CC(NC(=O)C(=O)Nc1ccc(Cl)c(F)c1)C(c1ccccc1Cl)N1CCOCC1` (stereo unspecified) [N1-(4-chloro-3-fluorophenyl)-N2-(1-(2-chlorophenyl)-1-morpholinopropan-2-yl)oxalamide]: the IC50 is above 100 µM.
For the compound `CC1(C)OC(=O)N(CCC(=O)Nc2ccc(Cl)cc2)[C@@]1(C)O` [(S)-N-(4-chlorophenyl)-3-(4-hydroxy-4,5,5-trimethyl-2-oxooxazolidin-3-yl)propanamide], the half-inhibitory concentration (IC50) was above 100 µM.
With `CC1CCCCN1C(C)CNC(=O)C(=O)Nc1ccc(Cl)c(F)c1` (stereo unspecified) [N1-(4-chloro-3-fluorophenyl)-N2-(2-(2-methylpiperidin-1-yl)propyl)oxalamide], the half-inhibitory concentration (IC50) was above 100 µM.
As for `CCCN1CCCC(NC(=O)C(=O)Nc2ccc(Cl)c(F)c2)C1` (stereo unspecified) [N1-(4-chloro-3-fluorophenyl)-N2-(1-propylpiperidin-3-yl)oxalamide], the figure is 58 µM; as for `O=C(Nc1ccc(Cl)c(F)c1)C(=O)N[C@H]1CCN(Cc2ccccc2)C1` [(S)-N1-(1-benzylpyrrolidin-3-yl)-N2-(4-chloro-3-fluorophenyl)oxalamide], above 100 µM.
The same measure for `CC1(C)NC(=O)N(C[C@H](O)COc2ccc(Cl)cc2)C1=O` [(S)-3-(3-(4-chlorophenoxy)-2-hydroxypropyl)-5,5-dimethylimidazolidine-2,4-dione]: above 100 µM.
The same measure for `CN(C)C(CNC(=O)C(=O)Nc1ccc(Cl)c(F)c1)c1ccco1` (stereo unspecified) [N1-(4-chloro-3-fluorophenyl)-N2-(2-(dimethylamino)-2-(furan-2-yl)ethyl)oxalamide]: above 100 µM.
As to `Cc1cc(NC(=O)C(=O)c2c[nH]c3ccccc23)ccc1Br` [N-(4-bromo-3-methylphenyl)-2-(1H-indol-3-yl)-2-oxoacetamide], the IC50 was above 100 µM.
Consider `O=C(COc1ccc(Cl)cc1)Nc1cc(=O)[nH]c(=O)[nH]1` [2-(4-chlorophenoxy)-N-(2,6-dioxo-1,2,3,6-tetrahydropyrimidin-4-yl)acetamide], for which the IC50 is above 100 µM.
On to `CC(C)C1CCN(CCC(=O)Nc2ccc(Br)cc2)CC1` [trans-1-(3-(4-bromophenylamino)-3-oxopropyl)-4-isopropylpiperidinium], for which the half-inhibitory concentration (IC50) is above 100 µM.
As for `O=C(NC[C@@H]1COC2(CCCC2)O1)C(=O)Nc1ccc(Cl)cc1` [(R)-N1-(1,4-dioxaspiro[4.4]nonan-2-ylmethyl)-N2-(4-chlorophenyl)oxalamide], the figure is above 100 µM; as for `CC1(C)CC(NC(=O)C(=O)Nc2ccc3cc[nH]c3c2)CC(C)(C)N1` [4-(2-(1H-indol-6-ylamino)-2-oxoacetamido)-2,2,6,6-tetramethylpiperidinium], above 100 µM.
The same measure for `CC1(C)CC(NC(=O)C(=O)Nc2ccc(-n3cc(-c4ccccc4)nn3)cc2)CC(C)(C)N1` [N1-(4-(4-phenyl-1H-1,2,3-triazol-1-yl)phenyl)-N2-(2,2,6,6-tetramethylpiperidin-4-yl)oxalamide]: above 100 µM; for `CCn1ncnc1C(C)NC(=O)C(=O)Nc1ccc(Cl)c(F)c1` (stereo unspecified) [N1-(4-chloro-3-fluorophenyl)-N2-(1-(1-ethyl-1H-1,2,4-triazol-5-yl)ethyl)oxalamide]: above 100 µM; for `CN1CCC(NC(=O)Nc2ccc(Cl)cc2Cl)CC1` [4-(3-(2,4-dichlorophenyl)ureido)-1-methylpiperidinium]: above 100 µM.
`CN(C)C(CNC(=O)C(=O)Nc1ccc(Cl)c(F)c1)N1CCCC1` (stereo unspecified) [N1-(4-chloro-3-fluorophenyl)-N2-(2-(dimethylamino)-2-(pyrrolidin-1-yl)ethyl)oxalamide]: the IC50 is above 100 µM.
Regarding `CC1(C)CC(NC(=O)C(=O)Nc2ccc(-n3cc(CCc4ccccc4)nn3)cc2)CC(C)(C)N1` [N1-(4-(4-phenethyl-1H-1,2,3-triazol-1-yl)phenyl)-N2-(2,2,6,6-tetramethylpiperidin-4-yl)oxalamide], the half-inhibitory concentration (IC50) is above 100 µM.
The same measure for `O=C(Nc1ccc(Cl)c(F)c1)C(=O)NC1CCN(C(=O)c2ccccc2)CC1` [N1-(1-benzoylpiperidin-4-yl)-N2-(4-chloro-3-fluorophenyl)oxalamide]: above 100 µM; for `C[C@H]1CCCN(CCC(=O)Nc2ccc(Cl)cc2)C1` [(3S)-1-(3-(4-chlorophenylamino)-3-oxopropyl)-3-methylpiperidinium]: above 100 µM; for `Nc1ccc(C(=O)CC(=O)Nc2ccc(Cl)cc2)cc1` [3-(4-aminophenyl)-N-(4-chlorophenyl)-3-oxopropanamide]: above 100 µM.
Turning to `Nc1ncc(CNC(=O)C(=O)Nc2ccc(Cl)c(F)c2)cn1` [N1-((2-aminopyrimidin-5-yl)methyl)-N2-(4-chloro-3-fluorophenyl)oxalamide], the half-maximal inhibitory concentration (IC50) is above 100 µM.
For the compound `O=C(Nc1ccc(Cl)cc1)c1cc2c([nH]c1=O)CCCC2` [N-(4-chlorophenyl)-2-oxo-1,2,5,6,7,8-hexahydroquinoline-3-carboxamide], the half-inhibitory concentration (IC50) was above 100 µM.
As for `O=C(NCc1ccccc1CN1CCOCC1)C(=O)Nc1ccc(Cl)c(F)c1` [N1-(4-chloro-3-fluorophenyl)-N2-(2-(morpholinomethyl)benzyl)oxalamide], the IC50 was 20.5 µM.
The same measure for `CN(C(=O)C(=O)Nc1ccc(Cl)c(F)c1)C1CC(C)(C)NC(C)(C)C1` [N1-(4-chloro-3-fluorophenyl)-N2-methyl-N2-(2,2,6,6-tetramethylpiperidin-4-yl)oxalamide]: above 100 µM; for `C[C@@H](Sc1nc(N)cc(=O)[nH]1)C(=O)Nc1ccc(Cl)cc1` [(R)-2-(6-amino-4-oxo-1,4-dihydropyrimidin-2-ylthio)-N-(4-chlorophenyl)propanamide]: above 100 µM.
As for `COc1cccc(N[C@@H](C)C(=O)Nc2ccc(Br)cc2)c1` [(S)-N-(4-bromophenyl)-2-(3-methoxyphenylamino)propanamide], the figure is above 100 µM.
Regarding `O=C(NCc1ccc2c(c1)OCO2)C(=O)Nc1ccc(Br)cc1` [N1-(benzo[d][1,3]dioxol-5-ylmethyl)-N2-(4-bromophenyl)oxalamide], the half-inhibitory concentration (IC50) was above 100 µM.
As to `CC(CC(=O)Nc1ccc(Br)cc1)Nc1cccc(CO)c1` (stereo unspecified) [N-(4-bromophenyl)-3-(3-(hydroxymethyl)phenylamino)butanamide], the concentration for half-maximal inhibition (IC50) was above 100 µM.
The same measure for `COc1cc(Cl)ccc1NC(=O)C(=O)NC1CC(C)(C)NC(C)(C)C1` [N1-(4-chloro-2-methoxyphenyl)-N2-(2,2,6,6-tetramethylpiperidin-4-yl)oxalamide]: above 100 µM; for `CC(C)(C)c1cc(CNC(=O)C(=O)Nc2ccc(Cl)c(F)c2)[nH]n1` [N1-((5-tert-butyl-1H-pyrazol-3-yl)methyl)-N2-(4-chloro-3-fluorophenyl)oxalamide]: above 100 µM; for `C[C@@H]1CCC[C@H](C)N1CCNC(=O)C(=O)Nc1ccc(Cl)c(F)c1` [N1-(4-chloro-3-fluorophenyl)-N2-(2-((2S,6R)-2,6-dimethylpiperidin-1-yl)ethyl)oxalamide]: 75.5 µM.
As for `CCN1CCCC1CNC(=O)C(=O)Nc1ccc(Cl)c(F)c1` (stereo unspecified) [N1-(4-chloro-3-fluorophenyl)-N2-((1-ethylpyrrolidin-2-yl)methyl)oxalamide], the figure is 85.2 µM; as for `O=C(NC[C@@H]1CCCN2CCCC[C@H]12)C(=O)Nc1ccc(Cl)c(F)c1` [N1-(4-chloro-3-fluorophenyl)-N2-(((1S,9aR)-octahydro-1H-quinolizin-1-yl)methyl)oxalamide], above 100 µM.
As for `O=C(Nc1ccc(Br)cc1)C(=O)Nc1cccc2ccccc12` [N1-(4-bromophenyl)-N2-(naphthalen-1-yl)oxalamide], the figure is above 100 µM; as for `CN1CCN(C(CNC(=O)C(=O)Nc2ccc(Cl)c(F)c2)c2ccccc2Cl)CC1` (stereo unspecified) [N1-(4-chloro-3-fluorophenyl)-N2-(2-(2-chlorophenyl)-2-(4-methylpiperazin-1-yl)ethyl)oxalamide], 73.6 µM.
As to `CC(C)c1cccc(NC(=O)C(=O)NC2CC(C)(C)NC(C)(C)C2)c1` [N1-(3-isopropylphenyl)-N2-(2,2,6,6-tetramethylpiperidin-4-yl)oxalamide], the IC50 was above 100 µM.
On to `CC1(C)CC(=O)c2cc(C(=O)Nc3ccc(Cl)cc3)c(=O)[nH]c2C1` [N-(4-chlorophenyl)-7,7-dimethyl-2,5-dioxo-1,2,5,6,7,8-hexahydroquinoline-3-carboxamide], for which the 50% inhibitory concentration (IC50) is above 100 µM.
For the compound `Cc1cc(OCC(=O)NCc2nnc[nH]2)ccc1Cl` [N-((1H-1,2,4-triazol-3-yl)methyl)-2-(4-chloro-3-methylphenoxy)acetamide], the IC50 was above 100 µM.

In general, IC50 refers to the concentration that gives 50% inhibition.
